Values of other authors, collected in paper PMC2853223 (ACS chemical biology, 2009).

Test system: DEBS 3
Details: mismatched PikAII/DEBS 3 pairing

Q: For “PiKAII: pikromycin PKS protein PikAII, paired with DEBS 3 in vivo”, which “association and transfer with DEBS 3 in vivo” value is on record?
A: productive association and transfer
